Read-outs that look alike come from different tables or passages of the source.
Tests used:
[1] = test system: P. mirabilis; design: key: Susceptible = S; Resistant = R; details: cited from earlier work
[2] = test system: Citrobacter spp.; experiment: Growth on Flexicult plate, susceptibility/resistance to the five antibiotics (FIG. 4, Table A); type: cell-based
Excerpt: (§1) The kit was developed for urine culture in the primary health care setting. It is designed preferably as a nine cm Petri dish divided into six compartments: One larger compartment for quantitative analysis and five smaller compartments for susceptibility testing. The agar in each small compartment contains one of five antimicrobials (for Denmark and Scandinavia preferably: trimethoprim, sulfamethizole, ampicillin, nitrofurantoin and mecillinam (amdinocillin)) at a concentration adjusted to the breakpoint, such that growth in these compartments indicates resistance, and no growth indicates susceptibility. The Petri dish preferably has higher sides, approximately 2.48 cm, than the usual dish, i.e. ca. 1.48 cm. This allows a larger amount, maximum 100 ml, of urine to be poured onto the dish for inoculation.
(§2) Reading the susceptibility of the bacterial growth: Each bacterium (if more than one) is read individually: The growth in each of the antibiotic fields is compared with the growth on the control agar. […] If there is no growth (or substantially less than the control agar), then the bacterium is considered to be susceptible to the antibiotic. […] When nitrofurantoin and mecillinam are used as antibiotics, a few single colonies may be seen of the same type as the bacterium on the control agar: These are not considered to be resistant mutants but “persisters,” i.e. if retested they will appear susceptible. This is commonly seen also by disc diffusion especially for mecillinam.

[3] = test system: E. coli; experiment: as above; type: cell-based
Excerpt: as §1, §2

[4] = test system: E. faecalis; experiment: as above; type: cell-based
Excerpt: as §1, §2

[5] = test system: P. vulgaris; experiment: as above; type: cell-based
Excerpt: as §1, §2

[6] = test system: E. faecium; experiment: as above; type: cell-based
Excerpt: as §1, §2

[7] = test system: Morganella spp.; experiment: as above; type: cell-based
Excerpt: as §1, §2

[8] = test system: Enterobacter spp; experiment: as above; type: cell-based
Excerpt: as §1, §2

[9] = test system: Klebsiella spp.; experiment: as above; type: cell-based
Excerpt: as §1, §2

[10] = test system: S. saprophyticus; experiment: as above; type: cell-based
Excerpt: as §1, §2

[11] = test system: Proteus mirabilis; experiment: as above; type: cell-based
Excerpt: as §1, §2

[12] = test system: Candida spp.; experiment: as above; type: cell-based
Excerpt: as §1, §2

[13] = test system: P. aureginosa; experiment: as above; type: cell-based
Excerpt: as §1, §2

[14] = test system: E. coli; details: cited from earlier work
[15] = test system: S. saprophyticus; design: key: Susceptible = S; Resistant = R; details: cited from earlier work
[16] = test system: Morganella; design: key: Susceptible = S; Resistant = R; details: cited from earlier work
[17] = test system: E. coli; design: key: Susceptible = S; Resistant = R; details: cited from earlier work
[18] = test system: Enterobacter; design: key: Susceptible = S; Resistant = R; details: cited from earlier work
[19] = test system: E. coli; details: 1142 E. coli outpatient urinary isolates, USA and Canada; cited from earlier work
[20] = test system: P. vulgaris; design: key: Susceptible = S; Resistant = R; details: cited from earlier work
[21] = test system: E. faecium; design: key: Susceptible = S; Resistant = R; details: cited from earlier work
[22] = test system: Citrobacter; design: key: Susceptible = S; Resistant = R; details: cited from earlier work
[23] = test system: S. agalactiae; design: key: Susceptible = S; Resistant = R; details: cited from earlier work
[24] = test system: Candida sp.; design: key: Susceptible = S; Resistant = R; details: cited from earlier work
[25] = Stability of the antimicrobial in the semi-solid media; type: physicochemical
Excerpt: Stability of the antimicrobial in the semi-solid media may depend on the pH-value. The pH-value should preferably not exceed certain limits as this will influence the antimicrobial effect. The stability of Ampicillin and Mecillinam has been improved by adjusting the pH-value of the semi-solid media to 6.0.

[26] = test system: E. coli; experiment: Growth of E. coli in antibiotic compartments of the platform (FIG. 3); type: cell-based; details: illustrated E. coli of FIG. 3
Excerpt: The photos show growth of E. coli at different quantities of bacteria/ml urine.

[27] = test system: E. faecalis; design: key: Susceptible = S; Resistant = R; details: cited from earlier work
[28] = test system: Pseud. Aeruginosa; design: key: Susceptible = S; Resistant = R; details: cited from earlier work
[29] = test system: Klebsiella; design: key: Susceptible = S; Resistant = R; details: cited from earlier work

Structure (SMILES): CC1(C)SC2C(NC(=O)C(N)c3ccccc3)C(=O)N2C1C(=O)O (stereo not shown) [Ampicillin, 7-(2-amino-2-phenyl-acetyl)amino-3,3-dimethyl-6-oxo-2-thia-5-azabicyclo[3.2.0]heptane-4-carboxylic acid]
- Normal susceptibility/resistance [1]: S
- Susceptibility = S or Resistance = R [2]: R
- Susceptibility = S or Resistance = R [3]: R
- Susceptibility = S or Resistance = R [4]: S
- Susceptibility = S or Resistance = R [5]: R/S
- Susceptibility = S or Resistance = R [6]: S
- Susceptibility = S or Resistance = R [7]: R
- Susceptibility = S or Resistance = R [8]: R
- Susceptibility = S or Resistance = R [9]: R
- Susceptibility = S or Resistance = R [10]: S
- Susceptibility = S or Resistance = R [11]: S
- Susceptibility = S or Resistance = R [12]: R
- Susceptibility = S or Resistance = R [13]: R
- Antimicrobial resistance of E. coli (resistance in percent) ([14]; Austria, n 126): 17.5%
- Antimicrobial resistance of E. coli (resistance in percent) ([14]; Belgium, n 137): 30.7%
- Antimicrobial resistance of E. coli (resistance in percent) ([14]; Canada, n 166): 29.5%
- Antimicrobial resistance of E. coli (resistance in percent) ([14]; Denmark, n 85): 22.4%
- Antimicrobial resistance of E. coli (resistance in percent) ([14]; Finland, n 182): 19.8%
- Antimicrobial resistance of E. coli (resistance in percent) ([14]; France, n 199): 27.6%
- Antimicrobial resistance of E. coli (resistance in percent) ([14]; Germany, n 138): 29.0%
- Antimicrobial resistance of E. coli (resistance in percent) ([14]; Greece, n 132): 22.0%
- Antimicrobial resistance of E. coli (resistance in percent) ([14]; Ireland, n 154): 44.8%
- Antimicrobial resistance of E. coli (resistance in percent) ([14]; Luxembourg, n 24): 41.7%
- Antimicrobial resistance of E. coli (resistance in percent) ([14]; Norway, n 168): 23.8%
- Antimicrobial resistance of E. coli (resistance in percent) ([14]; Portugal, n 86): 45.3%
- Antimicrobial resistance of E. coli (resistance in percent) ([14]; Spain, n 191): 53.9%
- Antimicrobial resistance of E. coli (resistance in percent) ([14]; Sweden, n 193): 15.5%
- Antimicrobial resistance of E. coli (resistance in percent) ([14]; Switzerland, n 122): 27.0%
- Antimicrobial resistance of E. coli (resistance in percent) ([14]; The Netherlands, n 195): 28.7%
- Antimicrobial resistance of E. coli (resistance in percent) ([14]; Total, n 2478): 29.8%
- Antimicrobial resistance of E. coli (resistance in percent) ([14]; United Kingdom, n 180): 37.2%
- Normal susceptibility/resistance [15]: S
- Normal susceptibility/resistance [16]: R
- Normal susceptibility/resistance [17]: S
- Normal susceptibility/resistance [18]: R
- Overall resistance in E. coli [19]: 37.7%
- Normal susceptibility/resistance [20]: R
- Normal susceptibility/resistance [21]: S
- Normal susceptibility/resistance [22]: R
- Normal susceptibility/resistance [23]: S
- Normal susceptibility/resistance [24]: R
- stability in the semi-solid media [25]: improved
- resistant or susceptible (growth in antibiotic compartment) [26]: resistant
- Normal susceptibility/resistance [27]: S
- Normal susceptibility/resistance [28]: R
- Normal susceptibility/resistance [29]: R

Structure (SMILES): CC1(C)S[C@@H]2[C@H](/N=C/N3CCCCCC3)C(=O)N2[C@H]1C(=O)O [Mecillinam, 6-Amidinopenicillanic acid derivatives; amdinocillin: 46-[[(hexahydro-1H-azepin-1-yl)methylene]amino]-3,3-dimethyl-7-oxo-, (2S,5R,6R)--Thia-1-azabicyclo[3.2.0]heptane-2-carboxylic acid]
- Normal susceptibility/resistance [1]: S/R
- Susceptibility = S or Resistance = R [2]: S
- Susceptibility = S or Resistance = R [3]: S
- Susceptibility = S or Resistance = R [4]: S
- Susceptibility = S or Resistance = R [5]: R
- Susceptibility = S or Resistance = R [6]: S
- Susceptibility = S or Resistance = R [7]: R
- Susceptibility = S or Resistance = R [8]: R
- Susceptibility = S or Resistance = R [9]: S
- Susceptibility = S or Resistance = R [10]: S
- Susceptibility = S or Resistance = R [11]: R
- Susceptibility = S or Resistance = R [12]: R
- Susceptibility = S or Resistance = R [13]: R
- Antimicrobial resistance of E. coli (resistance in percent) ([14]; Austria, n 126): 1.6%
- Antimicrobial resistance of E. coli (resistance in percent) ([14]; Belgium, n 137): 1.5%
- Antimicrobial resistance of E. coli (resistance in percent) ([14]; Canada, n 166): 1.2%
- Antimicrobial resistance of E. coli (resistance in percent) ([14]; Denmark, n 85): 1.2%
- Antimicrobial resistance of E. coli (resistance in percent) ([14]; Finland, n 182): 0.5%
- Antimicrobial resistance of E. coli (resistance in percent) ([14]; France, n 199): 1.5%
- Antimicrobial resistance of E. coli (resistance in percent) ([14]; Germany, n 138): 2.2%
- Antimicrobial resistance of E. coli (resistance in percent) ([14]; Greece, n 132): 0.8%
- Antimicrobial resistance of E. coli (resistance in percent) ([14]; Ireland, n 154): 0.6%
- Antimicrobial resistance of E. coli (resistance in percent) ([14]; Luxembourg, n 24): 0%
- Antimicrobial resistance of E. coli (resistance in percent) ([14]; Norway, n 168): 0%
- Antimicrobial resistance of E. coli (resistance in percent) ([14]; Portugal, n 86): 2.3%
- Antimicrobial resistance of E. coli (resistance in percent) ([14]; Spain, n 191): 1.0%
- Antimicrobial resistance of E. coli (resistance in percent) ([14]; Sweden, n 193): 1.6%
- Antimicrobial resistance of E. coli (resistance in percent) ([14]; Switzerland, n 122): 0%
- Antimicrobial resistance of E. coli (resistance in percent) ([14]; The Netherlands, n 195): 1.5%
- Antimicrobial resistance of E. coli (resistance in percent) ([14]; Total, n 2478): 1.2%
- Antimicrobial resistance of E. coli (resistance in percent) ([14]; United Kingdom, n 180): 1.7%
- Normal susceptibility/resistance [15]: S/R
- Normal susceptibility/resistance [16]: R
- Normal susceptibility/resistance [17]: S
- Normal susceptibility/resistance [18]: S
- Normal susceptibility/resistance [20]: R
- Normal susceptibility/resistance [21]: R
- Normal susceptibility/resistance [22]: S
- Normal susceptibility/resistance [23]: R
- Normal susceptibility/resistance [24]: R
- stability in the semi-solid media ([25]; pH-value of the semi-solid media adjusted to 6.0): improved
- resistant or susceptible (growth in antibiotic compartment) [26]: susceptible
- Normal susceptibility/resistance [27]: R
- Normal susceptibility/resistance [28]: R
- Normal susceptibility/resistance [29]: S

Reference: patent US8753875B2, “Compositions and means for diagnosing microbial infections” (priority 2007, dated 2014)
